For assay [1], the target named is T1, Muscarinic acetylcholine receptor M1 (Homo sapiens, UniProt P11229).
T1 sequence (P11229 whole entry): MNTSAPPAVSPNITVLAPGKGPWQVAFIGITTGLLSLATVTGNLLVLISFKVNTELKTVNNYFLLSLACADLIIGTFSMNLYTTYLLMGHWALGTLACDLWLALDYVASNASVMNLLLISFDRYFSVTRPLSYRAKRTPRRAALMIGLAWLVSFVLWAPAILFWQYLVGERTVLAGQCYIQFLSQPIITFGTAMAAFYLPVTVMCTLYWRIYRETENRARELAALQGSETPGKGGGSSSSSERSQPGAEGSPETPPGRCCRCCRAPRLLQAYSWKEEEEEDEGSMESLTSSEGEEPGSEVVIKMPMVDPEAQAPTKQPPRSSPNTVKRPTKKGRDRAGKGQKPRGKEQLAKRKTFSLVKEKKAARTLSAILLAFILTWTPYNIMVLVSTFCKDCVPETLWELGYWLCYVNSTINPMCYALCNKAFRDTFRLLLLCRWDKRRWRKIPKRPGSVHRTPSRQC
Format: functional.

In assay [2] the target is T2, 5-hydroxytryptamine receptor 2A (Homo sapiens, UniProt P28223). Format: functional, cell-based.
T2 sequence (P28223 whole entry): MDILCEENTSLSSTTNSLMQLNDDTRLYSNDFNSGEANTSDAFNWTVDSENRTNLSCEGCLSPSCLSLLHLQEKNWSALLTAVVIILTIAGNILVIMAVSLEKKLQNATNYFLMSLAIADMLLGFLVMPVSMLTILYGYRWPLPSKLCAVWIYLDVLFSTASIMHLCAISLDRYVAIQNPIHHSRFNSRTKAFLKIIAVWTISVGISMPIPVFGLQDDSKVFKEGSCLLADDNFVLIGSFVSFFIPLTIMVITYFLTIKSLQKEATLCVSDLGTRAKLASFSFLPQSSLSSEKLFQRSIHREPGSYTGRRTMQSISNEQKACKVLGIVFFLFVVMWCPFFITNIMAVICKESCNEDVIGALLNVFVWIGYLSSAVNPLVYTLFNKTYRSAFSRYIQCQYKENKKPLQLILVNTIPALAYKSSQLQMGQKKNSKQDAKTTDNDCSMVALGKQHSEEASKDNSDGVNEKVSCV
In another assay the target is Histamine H1 receptor (Homo sapiens, UniProt P35367).
Histamine H1 receptor, sequence (P35367 whole entry): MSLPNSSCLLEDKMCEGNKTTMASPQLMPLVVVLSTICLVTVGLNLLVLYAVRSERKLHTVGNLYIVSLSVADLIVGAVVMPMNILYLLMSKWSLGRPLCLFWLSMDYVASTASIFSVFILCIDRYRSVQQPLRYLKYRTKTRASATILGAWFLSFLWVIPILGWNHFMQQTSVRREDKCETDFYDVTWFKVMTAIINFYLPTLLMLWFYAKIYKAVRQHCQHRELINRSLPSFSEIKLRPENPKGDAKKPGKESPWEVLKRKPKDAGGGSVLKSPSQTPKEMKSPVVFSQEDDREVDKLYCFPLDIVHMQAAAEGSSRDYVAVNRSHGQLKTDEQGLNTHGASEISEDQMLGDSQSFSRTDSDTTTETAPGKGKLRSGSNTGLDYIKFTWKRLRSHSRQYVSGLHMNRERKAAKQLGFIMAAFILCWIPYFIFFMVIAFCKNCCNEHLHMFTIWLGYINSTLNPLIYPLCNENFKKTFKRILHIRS
The target in assay [3] is Muscarinic acetylcholine receptor M3 (Homo sapiens, UniProt P20309).
Muscarinic acetylcholine receptor M3, sequence (P20309 whole entry): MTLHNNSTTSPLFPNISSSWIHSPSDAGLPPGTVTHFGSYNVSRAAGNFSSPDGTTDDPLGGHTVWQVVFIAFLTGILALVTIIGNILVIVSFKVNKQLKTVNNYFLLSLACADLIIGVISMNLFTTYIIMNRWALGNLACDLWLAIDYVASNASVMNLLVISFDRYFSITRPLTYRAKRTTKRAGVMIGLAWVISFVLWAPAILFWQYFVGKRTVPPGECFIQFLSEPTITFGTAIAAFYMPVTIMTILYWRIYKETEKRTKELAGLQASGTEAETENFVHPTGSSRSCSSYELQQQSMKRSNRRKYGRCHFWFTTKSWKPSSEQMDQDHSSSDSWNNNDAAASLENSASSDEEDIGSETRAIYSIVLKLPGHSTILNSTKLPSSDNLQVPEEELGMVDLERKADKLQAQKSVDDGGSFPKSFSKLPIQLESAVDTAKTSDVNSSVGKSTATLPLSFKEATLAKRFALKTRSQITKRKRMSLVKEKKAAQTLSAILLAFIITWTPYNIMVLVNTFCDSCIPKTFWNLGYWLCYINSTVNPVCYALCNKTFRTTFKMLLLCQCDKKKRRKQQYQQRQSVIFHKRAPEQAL
The target in assay [4] is T2, 5-hydroxytryptamine receptor 2A. Format: functional, cell-based. This is another data set of the same source.
The target in assay [5] is Beta-2 adrenergic receptor (Homo sapiens, UniProt P07550). The class given is functional, cell-based.
Beta-2 adrenergic receptor, sequence (P07550 whole entry): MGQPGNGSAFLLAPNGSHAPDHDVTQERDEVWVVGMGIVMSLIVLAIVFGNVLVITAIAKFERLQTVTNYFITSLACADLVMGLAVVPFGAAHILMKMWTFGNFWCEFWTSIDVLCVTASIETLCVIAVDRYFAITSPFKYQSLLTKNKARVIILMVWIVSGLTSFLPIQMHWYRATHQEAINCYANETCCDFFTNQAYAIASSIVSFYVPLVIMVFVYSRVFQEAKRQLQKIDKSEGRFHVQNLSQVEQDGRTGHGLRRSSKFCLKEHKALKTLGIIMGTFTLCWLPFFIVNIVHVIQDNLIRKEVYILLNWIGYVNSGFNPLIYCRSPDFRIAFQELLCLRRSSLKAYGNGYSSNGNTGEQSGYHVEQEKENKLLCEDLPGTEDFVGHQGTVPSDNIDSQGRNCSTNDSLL
The target in assay [6] is T3, Alpha-1A adrenergic receptor (Homo sapiens, UniProt P35348).
T3 sequence (P35348 whole entry): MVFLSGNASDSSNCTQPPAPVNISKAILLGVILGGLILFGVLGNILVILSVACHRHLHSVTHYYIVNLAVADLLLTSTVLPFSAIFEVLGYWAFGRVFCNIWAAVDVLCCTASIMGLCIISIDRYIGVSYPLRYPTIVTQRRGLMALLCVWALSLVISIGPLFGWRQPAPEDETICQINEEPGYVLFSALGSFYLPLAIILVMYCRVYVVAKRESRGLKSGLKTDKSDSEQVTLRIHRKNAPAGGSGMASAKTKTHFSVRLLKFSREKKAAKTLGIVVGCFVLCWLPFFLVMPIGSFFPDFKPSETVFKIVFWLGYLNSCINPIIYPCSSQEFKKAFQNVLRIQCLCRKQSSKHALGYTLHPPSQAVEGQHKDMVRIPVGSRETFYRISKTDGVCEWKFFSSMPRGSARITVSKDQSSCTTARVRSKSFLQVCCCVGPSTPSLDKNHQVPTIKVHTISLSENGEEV
Format: functional, cell-based.

The target in the next assay is T4, Endothelin-1 receptor (Homo sapiens, UniProt P25101).
T4 sequence (P25101 whole entry): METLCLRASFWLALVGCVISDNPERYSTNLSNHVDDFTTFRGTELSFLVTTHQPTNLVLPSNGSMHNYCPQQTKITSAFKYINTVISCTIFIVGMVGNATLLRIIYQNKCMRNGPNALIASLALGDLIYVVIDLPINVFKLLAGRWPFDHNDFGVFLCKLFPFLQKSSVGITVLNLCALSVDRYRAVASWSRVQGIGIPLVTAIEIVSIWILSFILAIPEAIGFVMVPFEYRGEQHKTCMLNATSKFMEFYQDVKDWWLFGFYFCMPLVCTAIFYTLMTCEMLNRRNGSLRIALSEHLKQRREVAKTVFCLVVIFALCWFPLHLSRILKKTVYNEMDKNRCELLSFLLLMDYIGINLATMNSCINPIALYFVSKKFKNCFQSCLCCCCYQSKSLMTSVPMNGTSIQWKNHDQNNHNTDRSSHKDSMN

In assay [7] the target is Gamma-aminobutyric acid receptor subunit alpha-1/alpha-2/beta-2/gamma-2 (Homo sapiens, UniProt P14867+P18507+P47869+P47870). The class given is protein-complex assay.
Gamma-aminobutyric acid receptor subunit alpha-1/alpha-2/beta-2/gamma-2, sequence (P14867 whole entry): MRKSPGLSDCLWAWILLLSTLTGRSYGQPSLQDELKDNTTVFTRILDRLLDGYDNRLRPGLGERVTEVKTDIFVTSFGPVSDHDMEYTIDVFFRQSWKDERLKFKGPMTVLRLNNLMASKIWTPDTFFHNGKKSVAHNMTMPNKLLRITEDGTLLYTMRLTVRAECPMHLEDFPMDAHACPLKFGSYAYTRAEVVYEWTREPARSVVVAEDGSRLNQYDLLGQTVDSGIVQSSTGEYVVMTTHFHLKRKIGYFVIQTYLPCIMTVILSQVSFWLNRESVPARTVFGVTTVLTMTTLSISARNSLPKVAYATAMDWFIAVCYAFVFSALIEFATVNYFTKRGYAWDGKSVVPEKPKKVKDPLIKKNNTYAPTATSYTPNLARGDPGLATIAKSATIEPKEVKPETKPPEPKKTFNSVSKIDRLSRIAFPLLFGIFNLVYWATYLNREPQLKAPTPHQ
Gamma-aminobutyric acid receptor subunit alpha-1/alpha-2/beta-2/gamma-2, sequence (P47870 whole entry): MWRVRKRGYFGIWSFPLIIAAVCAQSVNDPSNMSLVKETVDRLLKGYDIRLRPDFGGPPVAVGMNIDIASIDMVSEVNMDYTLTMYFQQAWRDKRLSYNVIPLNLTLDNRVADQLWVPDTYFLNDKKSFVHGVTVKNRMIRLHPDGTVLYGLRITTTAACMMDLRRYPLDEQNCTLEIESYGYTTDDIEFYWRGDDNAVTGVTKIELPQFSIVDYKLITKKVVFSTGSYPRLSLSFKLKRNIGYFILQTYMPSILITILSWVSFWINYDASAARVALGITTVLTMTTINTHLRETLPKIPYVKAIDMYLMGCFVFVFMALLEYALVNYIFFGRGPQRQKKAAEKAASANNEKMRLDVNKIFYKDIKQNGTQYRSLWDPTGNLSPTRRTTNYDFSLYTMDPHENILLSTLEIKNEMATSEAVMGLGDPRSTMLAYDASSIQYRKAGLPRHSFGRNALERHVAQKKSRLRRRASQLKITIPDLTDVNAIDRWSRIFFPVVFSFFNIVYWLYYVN
Gamma-aminobutyric acid receptor subunit alpha-1/alpha-2/beta-2/gamma-2, sequence (P18507 whole entry): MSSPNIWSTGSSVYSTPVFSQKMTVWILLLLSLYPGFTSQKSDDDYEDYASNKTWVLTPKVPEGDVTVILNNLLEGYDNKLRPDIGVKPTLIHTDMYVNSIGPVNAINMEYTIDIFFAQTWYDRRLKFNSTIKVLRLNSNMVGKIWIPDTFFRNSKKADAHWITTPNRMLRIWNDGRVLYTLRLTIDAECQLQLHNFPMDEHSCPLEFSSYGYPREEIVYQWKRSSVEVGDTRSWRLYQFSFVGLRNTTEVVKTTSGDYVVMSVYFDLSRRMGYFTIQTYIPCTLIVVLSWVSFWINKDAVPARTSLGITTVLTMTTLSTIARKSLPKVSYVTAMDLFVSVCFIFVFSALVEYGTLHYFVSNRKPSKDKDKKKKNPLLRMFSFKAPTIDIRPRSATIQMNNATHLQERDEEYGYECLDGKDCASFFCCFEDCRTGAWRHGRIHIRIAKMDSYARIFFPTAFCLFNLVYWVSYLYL
Gamma-aminobutyric acid receptor subunit alpha-1/alpha-2/beta-2/gamma-2, sequence (P47869 whole entry): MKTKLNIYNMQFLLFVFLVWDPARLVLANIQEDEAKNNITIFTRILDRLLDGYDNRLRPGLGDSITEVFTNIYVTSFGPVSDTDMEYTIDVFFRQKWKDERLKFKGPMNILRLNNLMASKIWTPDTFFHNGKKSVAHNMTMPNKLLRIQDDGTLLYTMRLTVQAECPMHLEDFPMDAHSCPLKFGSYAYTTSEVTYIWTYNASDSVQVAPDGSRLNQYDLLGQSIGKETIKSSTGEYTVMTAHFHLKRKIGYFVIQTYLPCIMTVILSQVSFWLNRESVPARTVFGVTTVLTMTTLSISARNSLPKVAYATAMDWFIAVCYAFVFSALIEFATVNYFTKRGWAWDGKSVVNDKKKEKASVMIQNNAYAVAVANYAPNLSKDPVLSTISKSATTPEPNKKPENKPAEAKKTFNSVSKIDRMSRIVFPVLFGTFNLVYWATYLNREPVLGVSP
Further: assay procedure not described here.

As for `C[N+]1(C)CCC(=C(c2ccccc2)c2ccccc2)CC1`, the AC50 (commonly the midpoint of the concentration-response curve, whichever way the signal moves) is 0.41 µM in [1]; 19 µM in assay [2]; 2.9 µM at Histamine H1 receptor; 0.19 µM in assay [3]; greater than 10 µM in assay [4].
As to `C[N+](C)(C)CCOP(=O)([O-])OC[C@H](O)CO`, the AC50 (in assay [5]; in assay [6]; on Endothelin-1 receptor) was greater than 30 µM in each case.
Take `CN(C)Cc1nnc2n1-c1ccc(Cl)cc1C(c1ccccc1)=NC2` [ADINAZOLAM]: the AC50 (in [1]; on Histamine H1 receptor) was greater than 10 µM throughout.
With `CN(C)C/C=C/C(=O)Nc1cc2c(Nc3ccc(F)c(Cl)c3)ncnc2cc1O[C@H]1CCOC1` [AFATINIB], the AC50 (in assay [1]; in assay [2]; in [5]; on Histamine H1 receptor; in [6]; in assay [3]) was greater than 30 µM each time. Also, the AC50 (on Endothelin-1 receptor; in assay [4]) was greater than 30 µM each time.
Regarding `Cc1ccccc1-n1c(CF)nc2ccc(N)cc2c1=O` [AFLOQUALONE], the AC50 was greater than 10 µM in [1]; greater than 10 µM in assay [2]; greater than 10 µM on Histamine H1 receptor; greater than 30 µM in assay [3]; greater than 10 µM in assay [4].
Consider `CCC1(c2ccc(N)cc2)CCC(=O)NC1=O` (stereo not drawn) [AMINOGLUTETHIMIDE], for which the AC50 (in [5]; in assay [6]; at Endothelin-1 receptor) was greater than 30 µM throughout.
`NC(=O)[C@@H]1CC[C@@H]2CN1C(=O)N2OS(=O)(=O)O` [AVIBACTAM] showed an AC50 in assay [7] greater than 30 µM.
Regarding `CC1=C(C(=O)OC(C)C)C(c2cccc([N+](=O)[O-])c2)C(C(=O)OC2CN(C(c3ccccc3)c3ccccc3)C2)=C(N)N1` (stereo not drawn) [AZELNIDIPINE], the AC50 was greater than 30 µM in assay [1]; greater than 30 µM in assay [2]; greater than 30 µM at Histamine H1 receptor; 26 µM in assay [6]; greater than 30 µM in assay [3]; greater than 30 µM at Endothelin-1 receptor. For the same compound, the AC50 in assay [4] was greater than 30 µM.
Take `CC(Cc1cccc(C(F)(F)F)c1)NCCOC(=O)c1ccccc1` (stereo not drawn) [BENFLUOREX]: the AC50 in [1] is greater than 30 µM; in [2], 6.86 µM; in assay [5], greater than 30 µM; at Histamine H1 receptor, 13.5 µM; in [6], 14 µM; in assay [3], 27 µM. In addition, the AC50 (on Endothelin-1 receptor; in assay [4]) was greater than 30 µM in each case.
`CC(C)(Oc1ccc(CCNC(=O)c2ccc(Cl)cc2)cc1)C(=O)O` [BEZAFIBRATE] came in with a half-maximal activity concentration (AC50) in assay [6] greater than 30 µM.
`C=C1CC[C@H](O)C/C1=C/C=C1\CCC[C@]2(C)[C@@H]([C@H](C)CCCC(C)C)CC[C@@H]12` [CHOLECALCIFEROL] had an AC50 in assay [7] greater than 30 µM.
On to `C/C=C(/C(=C/C)c1ccc(O)cc1)c1ccc(O)cc1` [DIENESTROL], for which the AC50 in assay [2] was greater than 10 µM; on Histamine H1 receptor it was greater than 10 µM; in [3], greater than 30 µM; in assay [4], greater than 10 µM.
With `CN[C@]1(c2ccccc2Cl)CCCCC1=O` [ESKETAMINE], the AC50 (in assay [6]; at Endothelin-1 receptor) was greater than 30 µM each time.
Consider `COc1ccc([C@@H]2CC(=O)c3c(O)cc(O)cc3O2)cc1O` [HESPERETIN], for which the AC50 in [1] is greater than 10 µM; in assay [2], greater than 10 µM; on Histamine H1 receptor, greater than 10 µM; in [3], greater than 30 µM; in assay [4], greater than 10 µM.
For the compound `CNCCc1ccc(OC(=O)C(C)C)c(OC(=O)C(C)C)c1` [IBOPAMINE], the AC50 is greater than 30 µM in assay [1]; greater than 30 µM in [2]; 9.93 µM in [5]; greater than 30 µM on Histamine H1 receptor; greater than 30 µM in assay [3]; greater than 30 µM at Endothelin-1 receptor. In assay [4], this compound showed an AC50 greater than 30 µM.
In the case of `CCOC(=O)C1=C(C)NC(C)=C(C(=O)OCC)C1c1ccccc1/C=C/C(=O)OC(C)(C)C` [LACIDIPINE], the half-maximal activity concentration (AC50) (in [6]; at Endothelin-1 receptor) was greater than 30 µM throughout.
As to `CCC[C@@H]1C[C@@H](C(=O)N[C@@H]([C@H]2O[C@H](SC)[C@H](O)[C@@H](O)[C@H]2O)[C@@H](C)O)N(C)C1` [LINCOMYCIN], the AC50 in assay [5] and in [6] was greater than 30 µM throughout.
For the compound `COC(=O)C1=C(C)NC(C)=C(C(=O)OCCN2CCN(C(c3ccccc3)c3ccccc3)CC2)C1c1cccc([N+](=O)[O-])c1` (stereo not drawn) [MANIDIPINE 6300], the AC50 in [1] is greater than 30 µM; in assay [2] it was greater than 30 µM; in assay [5], greater than 30 µM; on Histamine H1 receptor, 3.7 µM; in assay [6] it was greater than 30 µM; in assay [3] it was greater than 30 µM. The concentration at half-maximal activity (AC50) (on Endothelin-1 receptor; in assay [4]) was greater than 30 µM in each case.
For the compound `C=C1c2cccc(O)c2C(=O)C2=C(O)[C@]3(O)C(=O)C(C(N)=O)=C(O)[C@@H](N(C)C)[C@@H]3[C@@H](O)[C@H]12` [METHACYCLINE], the AC50 in [1] is greater than 10 µM; in assay [2], greater than 10 µM; on Histamine H1 receptor, greater than 10 µM; in assay [3], greater than 30 µM; in assay [4] it was greater than 10 µM.
For `O=C1c2cccc3c2[C@H](CCC3)CN1[C@@H]1CN2CCC1CC2` [PALONOSETRON], the AC50 in assay [1] is greater than 30 µM; in [2], greater than 30 µM; in assay [6] it was 29 µM; in assay [3], 28 µM; in assay [4] it was greater than 30 µM.
As for `OC[C@H]1O[C@@H](n2cnc3c2NC=NC[C@H]3O)C[C@@H]1O` [PENTOSTATIN], the AC50 (in assay [1]; in [2]; in assay [5]; on Histamine H1 receptor; in assay [3]; at Endothelin-1 receptor) was greater than 30 µM each time. Further, the AC50 in [4] was greater than 30 µM.
The compound `O=C1c2ccccc2C(=O)C1c1ccccc1` [PHENINDIONE] returned an AC50 in assay [6] greater than 30 µM.
For the compound `Cc1cccc(C)c1NC(=O)CC12CCCN1CCC2` [PILSICAINIDE], the AC50 (in assay [1]; in assay [2]; at Histamine H1 receptor; in assay [6]; in [3]; at Endothelin-1 receptor) was greater than 30 µM each time. Besides, the AC50 in assay [4] was greater than 30 µM.
In the case of `CC(C)c1cccc(C(C)C)c1O` [PROPOFOL], the AC50 (in [5]; in assay [6]; at Endothelin-1 receptor) was greater than 30 µM throughout.
For the compound `CCCN1CC(NS(=O)(=O)N(CC)CC)CC2Cc3c(O)cccc3CC21` (stereo not drawn) [QUINAGOLIDE], the AC50 in assay [1] is greater than 30 µM; in assay [5] it was greater than 30 µM; at Histamine H1 receptor, 2.8 µM; in [3] it was greater than 30 µM; on Endothelin-1 receptor, greater than 30 µM.
As to `C[C@]12CCC(=O)C[C@@H]1CC[C@@H]1[C@@H]2CC[C@]2(C)[C@@H](O)CC[C@@H]12` [STANOLONE], the AC50 in assay [6] is greater than 30 µM.
Regarding `O=C1OC(OC(=O)c2cccnc2Nc2cccc(C(F)(F)F)c2)c2ccccc21` (stereo not drawn) [TALNIFLUMATE], the AC50 (in assay [1]; in [2]; in assay [5]; at Histamine H1 receptor; in assay [3]; on Endothelin-1 receptor) was greater than 30 µM in each case. Further, the AC50 in assay [4] was greater than 30 µM.
Take `C[C@]12C=CC(=O)C=C1CC[C@@H]1[C@@H]2CC[C@]2(C)OC(=O)CC[C@@H]12` [TESTOLACTONE]: the AC50 was greater than 10 µM in [1]; greater than 30 µM in assay [2]; greater than 30 µM in assay [5]; greater than 10 µM on Histamine H1 receptor; greater than 30 µM in [6]; greater than 30 µM in assay [3]. The AC50 in assay [4] was greater than 30 µM.
Regarding `CCOC(=O)c1c(CSc2ccccc2)n(C)c2cc(Br)c(O)c(CN(C)C)c12` [UMIFENOVIR], the AC50 in assay [1] is 18 µM; in assay [2] it was 6.7 µM; on Histamine H1 receptor it was 30 µM; in [3] it was greater than 30 µM; at Endothelin-1 receptor, greater than 30 µM; in [4], greater than 30 µM.

Source of the values: ChEMBL document CHEMBL5291721, “A preclinical secondary pharmacology resource illuminates target-adverse drug reaction associations of marketed drugs” (Nat Commun, 2023).
